Data as given in US12161114B2, “Overpowered ABA receptor agonists” (The Regents of the University of California, priority 2018, dated 2024).
Entries after “also recorded” stand apart in the source; their conditions may differ.

Tests used:
Arabidopsis plants = assay: thermal imaging of leaf temperature (anti-transpirant activity), Arabidopsis; format: in vivo, Arabidopsis thaliana; settings: 50 μM spray, 24 hr after treatment
Description: Three to 4 week old Arabidopsis plants were used for thermal imaging, 4 evenly spaced seedlings were included per 4-inch pot, each pot treated as a single measurement. Chemical treatments were as follow: compounds were dissolved in 0.5% DMSO and 0.02% Silwet-77 (Lehle seeds) at 50 μM and rosette leaves treated with 5 mL applied as an aerosol. Thermal images were collected using FLIR T62101 camera 24 hr after treatment. Seedlings positions were randomized to control for microenvironmental differences in the growth room. Treated plants were compared to mock treated plants (sprayed with 5 mL blank 0.5% DMSO/0.02% Silwet-77 solution). Average rosette leaf temperatures were obtained by averaging the temperatures measured from between 10-15˜1 cm^2 area spots from the 4 plants in each replicate pot, using FLIR software. Statistical analyses of the treatment effects were conducted in GraphPad using a one way ANOVA between control and treatment samples and a Dunnett test was used to obtain multiplicity adjusted p values, which are reported in FIG. 15.

[1] = tested on: panel of recombinant ABA receptors; PP2C HAB1; assay: receptor-mediated PP2C inhibition assay, dose response, umbelliferone substrate; format: biochemical, Arabidopsis
Description: (§1) Each ligand was tested at concentrations spanning 7 points between 4 nM and 50 μM in triplicate in a reaction buffer containing 100 mM Tris-HCl-pH7.9, 100 mM NaCl, 30 μg/ml BSA, 0.1% 2-mercaptoethanol, 25 nM ΔN-HAB1, 1 mM 4-methylumbelliferyl phosphate, and different recombinant ABA receptors at 50 nM or 300 nM (for PYL9 or PYL11). The substrate was added ˜20 minutes after the other components had been mixed and fluorescence data collected. Control carrier solvent-only wells were included as a reference and %-activity for tested compounds calculated relative to this control. The dose response data (PP2C activity versus agonist concentration) was fit to a log (inhibitor) vs. response-(variable slope) model using non-linear regression to infer the IC50S, using GraphPad Prism 6.0, to yield the IC50 values shown in FIG. 6.
The potency and selectivity of ligands 2b, 2e-f was established by testing their ability to activate multiple ABA receptor subtypes using the fluorescence based phosphasted assay as outlined in example 2 at a range of concentrations (4 nM to 50 μM). In addition, we compared ligand potency to ABA, quinabactin and a recently described fluorinated quinabactin analog AMF4, which is reported to have improved potency in comparison toe quinabactin. To conduct the assays purified recombinant receptors were tested at 50 nM or, in the a cases of PYL9 and PYL11, 300 nM and 25 nM ΔN-HAB1. The PP2C-activity dose response data obtained was fit to a log (inhibitor) vs response-(variable slope) model using non-linear regression to infer the IC50S, using GraphPad Prism 6.0, to yield IC50 values as shown in FIG. 12A. […] Moreover, the installation of a single cyclopropyl group ortho to the nitrile (analog 2e) provided a further boost in potency, dramatically so for all subfamily III receptors, PYL4 and PYL11. […] Furthermore, the installation of a second cyclopropyl substituent (analog 2f) provides an even further boot in activity on subfamily III receptors, which comes at the expense of reduced potency on subfamily I receptors. […] 2f is therefore an unusually overpowered ABA receptor agonist, which we refer to as opabactin (Opa).

tomato plants = assay: thermal imaging of leaf temperature (anti-transpirant activity), tomato; format: in vivo, Lycopersicon esculentum; settings: var. UC82, 50 μM or 100 μM spray, 24 hour intervals for 5 days
Description: To evaluate the efficacy of Opa in a different crop species, we performed quantitative thermal imaging in tomato plants. Tomato (var. UC82), seeds were spread on a moist filter paper and incubated in a dark chamber at room temperature for 7 days, after which they were transferred to light. After the first leaves emerged, the seedlings were transferred to soil and grown on a day night cycle; 3-4 w old plants were used for thermal imaging. Before thermal imaging, topical spraying of the plants was performed with a water solution containing ABA, quinabactin or the compound of interest, 0.5% DMSO and 0.05% Silwet-77 (Lehle seeds). 20 mL of 50 μM or 100 μM solutions were sprayed on the plants and thermal images were taken with an infrared camera (FLIR T62101) at 24 hour intervals after treatment for 5 days. […] Mock treated samples were analyzed with 8 replicates and chemical treatments with 4 replicates. […] The corrected p-values for treatment effects at all time points is summarized in the inset table and highlighted yellow if a significant increase in leaf temperature was observed.

PYR1 = molecular target: T1, PYR1 (Arabidopsis thaliana, UniProt O49686); assay: receptor-mediated PP2C inhibition assay, fluorescence based, PYR1; format: biochemical
T1 construct: made in house
T1 sequence (O49686 1-191): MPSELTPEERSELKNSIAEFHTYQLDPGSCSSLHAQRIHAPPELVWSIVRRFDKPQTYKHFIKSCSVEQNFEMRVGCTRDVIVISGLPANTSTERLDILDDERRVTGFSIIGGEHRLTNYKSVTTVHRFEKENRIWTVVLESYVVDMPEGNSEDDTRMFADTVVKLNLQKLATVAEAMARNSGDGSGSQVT
T1 sequence (Q9CAJ0 180-511 partner limits assumed): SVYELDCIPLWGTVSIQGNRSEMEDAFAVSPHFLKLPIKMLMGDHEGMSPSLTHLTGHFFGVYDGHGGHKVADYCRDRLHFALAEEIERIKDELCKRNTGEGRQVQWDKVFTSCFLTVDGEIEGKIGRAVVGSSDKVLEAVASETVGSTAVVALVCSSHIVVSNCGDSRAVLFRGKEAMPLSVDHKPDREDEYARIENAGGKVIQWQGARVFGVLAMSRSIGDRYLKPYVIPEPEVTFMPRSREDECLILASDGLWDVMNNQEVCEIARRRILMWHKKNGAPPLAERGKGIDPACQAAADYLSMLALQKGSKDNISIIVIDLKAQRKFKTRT
Description: as §1
The potency and selectivity of ligands 2b, 2e-f was established by testing their ability to activate multiple ABA receptor subtypes using the fluorescence based phosphasted assay as outlined in example 2 at a range of concentrations (4 nM to 50 μM). […]
We first explored if replacing the cyclopropyl group with an isopropyl group affects the activity of the ligand against PYR1. Ligands were tested using the fluorescence based PP2C assay described in example 2.

[2] = tested on: pyr1/pyl1, pyl8/pyl9 and abi1C mutants; assay: seed germination on receptor mutants and ABA signalling mutant abi1C; format: in vivo, Arabidopsis; settings: tested at twice the EC50
Description: Prior to selecting a scaffold for optimization we conducted Arabidopsis seed germination assays to establish if the hits obtained are activity in vivo. Germination experiments were performed with surface sterilized wild type Columbia Arabidopsis thaliana seeds and abi1C (the abi1-1 allele isolated in the Columbia ecotype) plated onto 0.7% agar medium containing 1/2-x MS salts, 0.5% sucrose and differing concentrations of the test compounds. After 4d of stratification at 4° C., the plates were transferred to a growth chamber under continuous illumination and evaluated after 4 days.
Methods similar to example 3 were followed.

improved potency relative to ABA ([1]; subfamily IIIA receptors): > 10 x
increased potency on PYR1 relative to ABA (PYR1): ~10 ×
SMILES: N#Cc1c(C2CC2)cc(CC(=O)NC2(C(=O)O)CCCCC2)cc1C1CC1 [2f, 1-[2-(4-cyano-3,5-dicyclopropylphenyl)acetamido]cyclohexane-1-carboxylic acid]
effects on transpiration (leaf temperature) (Arabidopsis plants): ABA-like effects on transpiration
potency in receptor-mediated PP2C inhibition (in words) ([1]; 4 nM to 50 μM dose response): most potent subfamily III agonist reported to date; also recorded: greatly more active than quinabactin and AMF4 on subfamily III receptors
anti-transpirant activity (leaf temperature) (tomato plants): highly active anti-transpirant in tomato with significantly longer effects than ABA
effect on germination in receptor mutant backgrounds [2]: only show diminished activity in the pyr1/pyl1 mutant
